EPA's ToxRefDB 2

Key:
[1] = tested on: rat; settings: Prenatal developmental toxicity study, sprague dawley, Oral, Gavage/Intubation, dose end: 15 GD
[2] = tested on: rat; settings: Neurotoxicity screening battery; sprague dawley; Oral; Feed; dose end: 13 week; group: cannot be grouped; cholinesterase / cholinesterase / cholinesterase / plasma cholinesterase (che) + systemic / in life observation / food consumption / food …
[3] = tested on: rabbit; settings: Prenatal developmental toxicity study, New Zealand White, Oral, Gavage/Intubation, dose end: 19 GD, group: maternal
[4] = tested on: rat; settings: Subchronic oral toxicity in rodents, sprague dawley, Gavage/Intubation, dose end: 90 day, group: systemic
[5] = tested on: rat; settings: Subchronic inhalation toxicity, sprague dawley, Whole-Body, dose end: 13 week
[6] = tested on: mouse; settings: Carcinogenicity, cd1, Oral, Feed, dose end: 78 week, group: systemic
[7] = tested on: rabbit; settings: Prenatal developmental toxicity study, new zealand white, Oral, Gavage/Intubation, dose end: 19 GD, group: maternal
[8] = tested on: rat; settings: Combined chronic toxicity/carcinogenicity, sprague dawley, Oral, Feed, dose end: 104 week
[9] = tested on: rabbit; settings: Prenatal developmental toxicity study, new zealand white, Oral, Gavage/Intubation, dose end: 19 GD, group: maternal; remark: listed apart in the source
[10] = tested on: rat; settings: Subchronic dermal toxicity, sprague dawley, Topical, dose end: 91 day
[11] = tested on: rat; settings: Prenatal developmental toxicity study, sprague dawley, Oral, Gavage/Intubation, dose end: 15 GD; remark: listed apart in the source
[12] = tested on: rat; settings: Subchronic oral toxicity in rodents, sprague dawley, Gavage/Intubation, dose end: 90 day
[13] = tested on: rat; settings: Prenatal developmental toxicity study, sprague dawley, Oral, Gavage/Intubation, dose end: 15 GD; remark: listed apart in the source
[14] = group: developmental, developmental / developmental landmark / [other] / [other]
[15] = group: maternal, systemic / in life observation / body weight / body weight gain + systemic / in life observation / clinical signs / salivation + systemic / …
[16] = systemic / in life observation / body weight / body weight gain + systemic / in life observation / food consumption / food consumption + …
[17] = group: cholinesterase, cholinesterase / cholinesterase / cholinesterase / brain cholinesterase (che)
[18] = group: cholinesterase, cholinesterase / cholinesterase / cholinesterase / brain cholinesterase (che) + cholinesterase / cholinesterase / cholinesterase / …
[19] = group: systemic, systemic / clinical chemistry / glucose / glucose + systemic / clinical chemistry / alanine aminotransferase (alt/sgpt) / alanine …
[20] = systemic / pathology microscopic / thyroid gland / vacuolization + systemic / pathology microscopic / thyroid gland / hypertrophy
[21] = systemic / pathology microscopic / thyroid gland / vacuolization + systemic / pathology microscopic / thyroid gland / hypertrophy + systemic…
[22] = reproductive / reproductive performance / resorptions / resorptions + systemic / in life observation / body weight / body weight gain + …
[23] = group: cholinesterase, cholinesterase / cholinesterase / cholinesterase / erythrocyte cholinesterase (che) + cholinesterase / cholinesterase / cholinesterase / …
[24] = group: cholinesterase, cholinesterase / cholinesterase / cholinesterase / plasma cholinesterase (che)
[25] = group: systemic, systemic / in life observation / body weight / body weight gain
[26] = group: systemic, systemic / in life observation / body weight / body weight gain + systemic / clinical chemistry / cholesterol / cholesterol + systemic / …
[27] = systemic / in life observation / clinical signs / defecation + systemic / in life observation / food consumption / food consumption + …
[28] = group: cholinesterase, cholinesterase / cholinesterase / cholinesterase / plasma cholinesterase (che) + cholinesterase / cholinesterase / cholinesterase / …
[29] = group: systemic, systemic / pathology microscopic / skin / hyperkeratosis + systemic / clinical chemistry / calcium / calcium + systemic / clinical chemistry…
[30] = group: systemic, systemic / pathology microscopic / skin / hyperkeratosis + systemic / clinical chemistry / glucose / glucose + systemic / in life …
[31] = group: developmental, developmental / developmental malformation / bone / incomplete ossification + developmental / developmental malformation / bone / wavy
[32] = group: maternal, systemic / in life observation / body weight / body weight gain
[33] = group: cholinesterase, cholinesterase / cholinesterase / cholinesterase / cholinesterase (che)
[34] = group: systemic, systemic / in life observation / clinical signs / salivation + systemic / pathology gross / liver / misshapen
[35] = group: systemic, systemic / in life observation / clinical signs / salivation + systemic / pathology gross / liver / misshapen + systemic / pathology …
[36] = group: developmental, developmental / developmental malformation / bone / unossified + systemic / in life observation / body weight / fetal weight
[37] = group: maternal, systemic / in life observation / body weight / body weight gain + systemic / in life observation / food consumption / food consumption + …

`CCCCNC(=O)OCC#CI` [3-Iodo-2-propynyl-N-butylcarbamate] gave an LEL [1, 14] of 250 mg/kg/day, an LOAEL [1, 14] of 250 mg/kg/day and an NEL [1, 14] of 75 mg/kg/day. The NOAEL [1, 14] was 75 mg/kg/day, the LEL [1, 15] was 75 mg/kg/day and the LOAEL [1, 15] was 75 mg/kg/day. It also gave an NEL [1, 15] of 25 mg/kg/day, an NOAEL [1, 15] of 25 mg/kg/day and an LEL [2] of 50 mg/kg/day. For the same compound, the LOAEL [2] was 50 mg/kg/day, the NEL [2] was 10 mg/kg/day and the NOAEL [2] was 10 mg/kg/day. The LOAEL ([3]; systemic / in life observation / body weight / body weight gain + systemic / in life observation / food consumption / food consumption) was 20 mg/kg/day, the LEL [3, 16] was 20 mg/kg/day and the NEL [3, 16] was 10 mg/kg/day. For the same compound, the NOAEL [3, 16] was 10 mg/kg/day, the NEL ([4]; systemic / in life observation / clinical signs / post-dosing rooting in bedding + systemic / organ weight / liver / relative to body weight…) was 20 mg/kg/day and the LOAEL ([4]; systemic / organ weight / liver / relative to body weight) was 50 mg/kg/day. It also gave an NOAEL ([4]; systemic / organ weight / liver / relative to body weight + systemic / in life observation / body weight / body weight gain + systemic / in …) of 20 mg/kg/day, an LEL ([4]; systemic / organ weight / liver / relative to body weight + systemic / in life observation / clinical signs / post-dosing rooting in bedding…) of 50 mg/kg/day and an LEL [5, 17] of 0.11 ppm. It also gave an LOAEL [5, 17] of 0.11 ppm, an NEL [5, 18] of 0.0217 ppm and an NOAEL [5, 18] of 0.0217 ppm. The LEL ([5]; group: systemic, systemic / clinical chemistry / glucose / glucose) was 0.11 ppm, the LOAEL [5, 19] was > 0.54 ppm and the NEL [5, 19] was 0.0217 ppm. The NOAEL [5, 19] was ≥ 0.54 ppm, the LOAEL [6, 20] was 19.8 mg/kg/day and the NOAEL [6, 20] was < 19.8 mg/kg/day. The LEL [6, 21] was 19.8 mg/kg/day, the NEL [6, 21] was < 19.8 mg/kg/day and the LEL ([7]; reproductive / reproductive performance / resorptions / resorptions) was 20 mg/kg/day. It also gave an NEL [7, 22] of 2 mg/kg/day, an NOAEL [7, 22] of 20 mg/kg/day and an LOAEL ([7]; systemic / in life observation / body weight / body weight gain + systemic / in life observation / clinical signs / [other] + systemic / in …) of 50 mg/kg/day. The LOAEL [8, 23] was > 80.1 mg/kg/day, the NOAEL [8, 23] was ≥ 80.1 mg/kg/day and the LEL [8, 24] was 20.1 mg/kg/day. The NEL [8, 24] was < 20.1 mg/kg/day, the LOAEL [8, 25] was 20.1 mg/kg/day and the NOAEL [8, 25] was < 20.1 mg/kg/day. The LEL [8, 26] was 20.1 mg/kg/day, the NEL [8, 26] was < 20.1 mg/kg/day and the LEL [9, 27] was 20 mg/kg/day. The NEL [9, 27] was 10 mg/kg/day, the NOAEL [9, 27] was 20 mg/kg/day and the LOAEL ([9]; systemic / in life observation / clinical signs / defecation + systemic / pathology gross / stomach / discolored + reproductive / …) was 40 mg/kg/day. The NEL [10, 24] was 200 mg/kg/day, the LEL [10, 28] was 500 mg/kg/day and the LOAEL [10, 28] was > 500 mg/kg/day. The NOAEL [10, 28] was ≥ 500 mg/kg/day, the NEL [10, 29] was 50 mg/kg/day and the NOAEL [10, 29] was 50 mg/kg/day. The LEL [10, 30] was 200 mg/kg/day, the LOAEL [10, 30] was 200 mg/kg/day and the LEL [11, 31] was 125 mg/kg/day. It also gave an LOAEL [11, 31] of 125 mg/kg/day, an NEL [11, 31] of 50 mg/kg/day and an NOAEL [11, 31] of 50 mg/kg/day. The LEL [11, 32] was 125 mg/kg/day, the LOAEL [11, 32] was 125 mg/kg/day and the NEL [11, 32] was 50 mg/kg/day. The NOAEL [11, 32] was 50 mg/kg/day, the LEL [12, 33] was 75 mg/kg/day and the LOAEL [12, 33] was > 200 mg/kg/day. For the same compound, the NEL [12, 33] was 25 mg/kg/day, the NOAEL [12, 33] was ≥ 200 mg/kg/day and the LOAEL [12, 34] was 25 mg/kg/day. For the same compound, the NOAEL [12, 34] was < 25 mg/kg/day, the LEL [12, 35] was 25 mg/kg/day and the NEL [12, 35] was < 25 mg/kg/day. For the same compound, the LEL [13, 36] was 250 mg/kg/day, the LOAEL [13, 36] was 250 mg/kg/day and the NEL [13, 36] was 75 mg/kg/day. The NOAEL [13, 36] was 75 mg/kg/day, the LOAEL ([13]; group: maternal, systemic / in life observation / body weight / body weight gain + systemic / in life observation / food consumption / food consumption) was 75 mg/kg/day and the LEL [13, 37] was 75 mg/kg/day. For the same compound, the NEL [13, 37] was 25 mg/kg/day and the NOAEL [13, 37] was 25 mg/kg/day.
